EC50 data for four molecules are collected here from patent publication US6387655B1, “Excitatory amino acid receptor protein and related nucleic acid compounds” (Eli Lilly and Company, priority 1995, dated 2002).

The structures appear in SMILES notation. Read-outs that look alike come from different tables or passages of the source.

As usually defined, the EC50 is the concentration giving half of the maximal effect.

In this assay the target is T1, human HmGluR3 (Homo sapiens, UniProt Q14832).
T1 construct: expressed in transfected cells; host or cells: RGT (RGT-18) cells, i.e. AV12 cells stably expressing the rat glutamate transporter GLAST
Nature of the assay: Inhibition of forskolin-stimulated cAMP synthesis (adenylate cyclase activity) in RGT cells stably transfected with pGTh-HmGluR3. Type of assay: cell-based. The method, then: In an especially preferred embodiment of this invention an assay measuring the inhibition of forskolin-stimulated cAMP synthesis was performed. The inhibition of cAMP synthesis is known to positively correlated with the addition of glutamate to cells containing certain types of metabotropic receptors.
Adenylate cyclase activity was determined in initial experiments in transfected mammalian cells, using standard techniques. See. e.g., N. Adham, et al., supra,; R. L. Weinshank, et al., Proceedings of the National Academy of Sciences (USA), 89:3630-3634 (1992), and the references cited therein.
As noted above, mammalian cells (the cell line RGT) were stably transfected with the plasmid pGTh-HmGluR3, containing human HmGluR3 cDNA inserted in the plasmid vector pGTh, as depicted in FIG. 2. The cells were maintained in a medium consisting of Dulbecco's Modified Eagle's Medium (DMEM) containing 5% dialyzed fetal calf serum, 10 mM HEPES buffer (pH 7.3), 1 mM sodium pyruvate, 1 mM glutamine, and 200 μg/ml hygromycin.
For the assay the cells were disassociated from stock culture flasks with trypsin, and planted in 24-well plastic culture dishes (15 mm wells) at a density of 500-700,000 cells per well using the same culture medium. After twenty four hours incubation in a humidified carbon dioxide incubator, the cell monolayers are washed with buffer (Dulbecco's phosphate-buffered saline containing 0.5 mM isobutylmethylxanthine and 3 mM glucose) and then incubated in the same buffer at 37° C. for 30 minutes. The monolayers are then washed four additional times with buffer.
Drugs and forskolin, or forskolin alone, dissolved in buffer, was added after the final wash. After incubating for 20 minutes at 37° C., 0.5 ml of 8 mM EDTA was added to each well. The plates were then placed in a boiling water bath for about four minutes. The supernatant fluids are then recovered from the wells and lyophilized. Cyclic adenosinemonophosphate (cAMP) determinations were carried out on the lyophilized samples using commercially available radioimmunoassay kits, following the manufacturer's instructions. The cAMP level in wells containing drug was compared to the forskolin controls.

Where [1] appears, read: RGT cells expressing HmGluR3, cAMP by radioimmunoassay versus forskolin controls, 20 minutes at 37° C., read-out: EC50 (potencies of selected agonists for HmGluR3 expressed in RGT cells).

T1 sequence (Q14832 23-879): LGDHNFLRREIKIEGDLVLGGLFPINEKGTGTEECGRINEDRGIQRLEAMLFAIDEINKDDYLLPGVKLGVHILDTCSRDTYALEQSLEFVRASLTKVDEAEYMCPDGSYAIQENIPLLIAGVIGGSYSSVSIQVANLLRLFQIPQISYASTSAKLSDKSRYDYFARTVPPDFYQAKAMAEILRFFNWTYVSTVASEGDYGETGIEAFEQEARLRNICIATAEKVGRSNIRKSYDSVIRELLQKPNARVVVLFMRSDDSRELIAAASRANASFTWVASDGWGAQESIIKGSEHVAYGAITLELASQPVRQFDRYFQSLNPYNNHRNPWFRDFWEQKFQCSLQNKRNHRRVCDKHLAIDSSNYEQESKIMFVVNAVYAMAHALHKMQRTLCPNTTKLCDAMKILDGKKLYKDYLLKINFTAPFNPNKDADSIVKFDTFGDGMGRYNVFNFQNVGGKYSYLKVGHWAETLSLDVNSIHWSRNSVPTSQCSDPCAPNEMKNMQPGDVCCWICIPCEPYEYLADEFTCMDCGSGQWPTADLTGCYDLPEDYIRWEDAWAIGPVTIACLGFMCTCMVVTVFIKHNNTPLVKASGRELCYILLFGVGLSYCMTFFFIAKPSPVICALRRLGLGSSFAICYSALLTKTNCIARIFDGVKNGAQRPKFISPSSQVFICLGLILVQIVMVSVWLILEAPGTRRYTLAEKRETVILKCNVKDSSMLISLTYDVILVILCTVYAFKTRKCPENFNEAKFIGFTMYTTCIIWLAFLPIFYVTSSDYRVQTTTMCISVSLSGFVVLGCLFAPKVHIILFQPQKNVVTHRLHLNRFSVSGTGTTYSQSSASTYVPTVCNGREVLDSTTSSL

Consider `NC1(C(=O)O)CCC(C(=O)O)C1` (stereo not drawn) [1S,3R-1-aminocyclopentant-1,3-dicarboxylic acid], for which the EC50 was determined as 2230 nM.

Take `NC1(C(=O)O)CNC(C(=O)O)C1` (stereo not drawn) [2R,4R-4-aminopyrrolidine-2,4-dicarboxylate]: the EC50 under setting [1] was found to be 550 nM.

On to `N[C@H](C(=O)O)C1CC1C(=O)O` (stereo partly drawn) [L-2-(carboxycyclopropyl)glycine-I], for which the 50% effective concentration (EC50) under setting [1] was determined as 12 nM.

For `N[C@@H](CCC(=O)O)C(=O)O` [L-Glutamate, 1-aminopropane-1,3-dicarboxylic acid], the EC50 was determined as 5380 nM.
